Laboratory results: patent publication US20090036418A1, “Pharmaceutical composition for treatment of cancer containing pyridylpyridazine or transition metal complex thereof as active ingredient” (priority 2005, published 2009)

Tested on: XF-498 (human brain cancer)
Assay: SRB assay, XF-498 cancer cell line
Type: cell-based
Details: brain cancer cell line of Test Example 1, SRB assay
Method: The pyridylpyridazine compounds prepared in Preparation Examples 1 to 5 and transition metal complexes thereof were evaluated for the anticancer activities thereof. As cancer cell lines used in the test, A549 (human lung cancer), SK-MEL-2 (human skin cancer), HCT-15 (human colon cancer), SK-OV-3 (human […]) and XF-498 (human brain cancer) among 60 kinds of cancer cell lines[Ross, D. T. et al., Systematic variation in gene expression patterns I human cancer cell lines. Nature genetics, 24, 227-235 (2000)], which are used for the search of anticancer activity in the US National Cancer Institute, were obtained from the Bioorganic Research Division, the Korea Research Institute of Chemical Technology. The anticancer activities of the cell lines were evaluated by measuring ED50 values according to the sulforhodamine B (SRB) assay described in the literature[Choi, S. et al., Cytotoxicity of trichlorothecenes to human solid tumor cells in vitro. Arch. Pharm. Res. 19, 6-11 (1996)]. […]
More specifically, the SRB assay was performed in the following manner. […] After completion of the culture, each well was well washed, treated with 150 μl (10 mM) of unbuffer ED Tris solution to dissolve out the SRB dye, and then measured for absorbance at 520 nm using a reader for 96-well plates. […]

Compound	anticancer activity against the brain cancer cell line (in words)
[3,6-bis(6′-methyl-2′-pyridyl)pyridazine]zinc(II) chloride [Compound of Preparation Example 4]	excellent anticancer activity
c1ccc(-c2ccc(-c3ccccn3)nn2)nc1 [Compound of Preparation Example 1, 3,6-bis(2′-pyridyl)pyridazine]	high anticancer activity
